{
  "source": "patent US20220282304A1",
  "about": "“SAME-SAMPLE ANTIBIOTIC SUSCEPTIBILITY TEST AND RELATED COMPOSITIONS, METHODS AND SYSTEMS” (CALIFORNIA INSTITUTE OF TECHNOLOGY, priority 2021, published 2022)",
  "system": "Escherichia coli isolate",
  "experiment": "Digital same-sample filtration AST, one treated and one concurrent reference condition (Example 5)",
  "type": "cell-based",
  "conditions": "1.0 μg/mL ETP; for lysed cells detected: all detected treated cells lysed",
  "experimental": "The inoculum was small enough that no detectable difference in the sample's optical density at 600 mm (OD600) was detectable by a spectrophotometer with a sensitivity of 0.01 absorbance units. After an incubation at 37° C., the media became turbid with an OD600 of 0.18 absorbance units after 3 hours of incubation.\nIn this experiment, the number and volume of sample partitions was restricted, for logistical reasons, to 96 partitions 10 μL, in volume, specifically the wells of a 96-well plate. A goal was chosen of having a >98% chance of ending up with at least 48 empty partitions. When all partitions are the same volume, the following formula relates the expected number of empty partitions, the partition volume, and the density of cells.\nN is the total number of partitions, n is the number of empty partitions, V is the partition volume, D is the density of cells, and t is a threshold probability chosen by the practitioner. Thus, in order to achieve digital sample partitioning with the available 96-well plate, the contrived clinical specimen was diluted to a cell density of 0.0375 cells/μL. Each 10 μL sample of the specimen would then contain 0.375 cells on average.\nTo begin the AST protocol, the contrived clinical specimen was physically split into the 96 partitions by transferring 10 μL of the sample, in 96 separate transfers (actually 12 transfers with a multichannel pipette), to 96 wells of a microtiter plate. Each well contained 15 μL of Mueller-Hinton Broth (MHB) growth media. Half of the wells (48) contained 0 μg/mL of dissolved ETP antibiotic and served as reference condition antibiotic exposures. The other half of the wells contained 1.67 μg/mL of ETP (for a final concentration of 1.0 μg/mL) and served as 48 treated condition antibiotic exposures. The 96 antibiotic exposures were incubated at 37° C. for 70 minutes.\nThe entire volume of each antibiotic exposure was transferred to a Millipore® 96-well sterile polystyrene MultiScreenHTS® filter plate (Millipore-Sigma MSGVS2210). Each well of the filter plate contained a hydrophilic polyvinylidene fluoride (PVDF) filter membrane with a 0.22 μm pore size. The antibiotic exposures were centrifuged at 2200 relative centrifugal force to speed the passage of the antibiotic exposure through the filter and into 96 collecting vessels. The collected fluid was called the “filtrate.”\n50 μL of fresh MHB media was spun through the filters after the first centrifugation (above) to wash away residual extracellular nucleic acids present in the fluid wetting the filters. This wash fluid is not collected with the filtrates.\n10 μL of each of the filtrates was added to and mixed with 10 μL of Lucigen DNA Extraction Buffer, heated to 65° C. for 6 minutes, then heated to 98° C. for 4 minutes.\n20 μL of DNA Extraction Buffer was placed on top of the filters. The filter plate was heated to 65° C. for 6 minutes, shaking at 700 rpm, on a ThermoMixer® flat surface heating block. Then, the filter plate was taped to a clean 96-well polypropylene microtiter plate and centrifuged at 2000 rcf for 2 minutes. The DNA Extraction Buffer fluid that flowed through the filter was collected in the microtiter plate below the filter plate. Next, the microtiter plate was heated to 98° C. for 4 minutes inside a BioRad thermocycler. These collected and heated fluid volumes are termed the “lysates” which comprise intracellular nucleic acid.\nSeparately, for each of the 96 extracted filtrates and for each of the 96 extracted lysates, 1.00 μL of the extracted filtrate was mixed with 0.02 μL of 3 U/mL Lucigen® RapiDxFire thermostable reverse transcriptase, 0.2 μL of Lucigen® RapiDxFire 10× thermostable buffer, 0.1 μL of 10 mM deoxyribonucleic acid nucleotides, 0.6 μL of deionized water, and 0.08 μL of a 10 μM aqueous solution of DNA primer, according to manufacturer's instructions, to create a reverse transcription reaction with a total volume of 2.0 μL. […]",
  "data": [
    {"smiles": "C[C@@H](O)[C@H]1C(=O)N2C(C(=O)O)=C(S[C@@H]3CN[C@H](C(=O)Nc4cccc(C(=O)O)c4)C3)[C@H](C)[C@H]12", "note": "[ETP, ertapenem]", "values": [
      {"measurement": "percent extracellular of detected antibiotic-treated cells (lysis)", "setting": "70 minutes 37° C., qPCR 23S rRNA, 96 partitions", "result": 100, "unit": "%"},
      {"measurement": "susceptibility call (Fisher's exact test)", "setting": "70 minutes, ddPCR", "result": "susceptible"},
      {"measurement": "percent extracellular of detected antibiotic-treated cells (lysis)", "setting": "70 minutes, ddPCR 23S rRNA, 56 of the 96 partitions", "result": 100, "unit": "%"},
      {"measurement": "lysed cells detected", "setting": "70 minutes, ddPCR, 56 of the 96 partitions", "result": 9},
      {"measurement": "susceptibility call (Fisher's exact test)", "setting": "70 minutes, qPCR", "result": "susceptible"},
      {"measurement": "lysed cells detected", "setting": "70 minutes, qPCR, of the 96 partitions", "result": 19}
    ]}
  ]
}
